In one test the test system is mtp53. Put plainly: Western blot analysis of acetyl-mtp53 (K382) and mtp53 level. Particulars: HS578T; 10 μM suramin 1 hr, then 1 μM YK-3-237 23 hr. Format: cell-based. As to the method: Preparation of cell lysates and western blot analyses were performed. Antibodies were obtained from the following sources: Ac-p53 (K382; #2525), Ac-α-tubulin (K40; #3971), phospho-ACC (S78; #3661), and ACC (#3676) from Cell Signaling (Danvers, Mass.); PARP (#556494) from BD Pharmingen (San Jose, Calif.); p53 (V1003) from Biomeda (Foster City, Calif.); ERα (sc-543) and SIRT1 (sc-15404) from Santa Cruz (Santa Cruz, Calif.); α-tubulin, β-Actin (A1978), and horseradish peroxidase-conjugated secondary antibodies from Sigma (St. Louis, Mo.). Chemiluminescence reagent was obtained from Santa Cruz or Thermo Scientific (Rockford, Ill.).
A general note: Immunoblotting shows a protein as a band on a membrane.

The target in test [1] is T1, purified human SIRT1 enzyme (Homo sapiens, UniProt Q96EB6).
T1 construct: purchased Enzo Life Sciences
T1 sequence (Q96EB6 1-747): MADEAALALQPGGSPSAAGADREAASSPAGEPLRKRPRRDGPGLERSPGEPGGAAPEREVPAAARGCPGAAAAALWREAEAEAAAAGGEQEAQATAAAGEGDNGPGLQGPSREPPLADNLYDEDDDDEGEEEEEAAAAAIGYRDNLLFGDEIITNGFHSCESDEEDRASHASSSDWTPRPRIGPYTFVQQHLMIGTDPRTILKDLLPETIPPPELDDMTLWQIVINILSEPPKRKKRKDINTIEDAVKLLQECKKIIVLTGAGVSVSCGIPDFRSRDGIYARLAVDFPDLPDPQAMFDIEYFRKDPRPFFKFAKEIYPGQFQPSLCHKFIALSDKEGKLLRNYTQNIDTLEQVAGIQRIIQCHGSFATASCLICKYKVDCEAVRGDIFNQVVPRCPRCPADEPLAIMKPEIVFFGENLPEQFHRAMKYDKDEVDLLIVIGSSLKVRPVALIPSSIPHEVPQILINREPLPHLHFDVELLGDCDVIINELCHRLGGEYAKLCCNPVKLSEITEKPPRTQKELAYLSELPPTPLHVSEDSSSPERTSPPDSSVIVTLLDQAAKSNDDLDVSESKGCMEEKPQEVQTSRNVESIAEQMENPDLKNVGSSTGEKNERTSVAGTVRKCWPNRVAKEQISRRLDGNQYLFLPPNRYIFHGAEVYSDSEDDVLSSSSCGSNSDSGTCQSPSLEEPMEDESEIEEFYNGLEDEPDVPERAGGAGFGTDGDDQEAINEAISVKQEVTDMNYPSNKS
Put plainly: In vitro SIRT assay (Fluor-de-Lys-SIRT1 deacetylase assay). It counts as biochemical. Particulars: 50 μM of suramin added to reaction. As to the method:
The Fluor-de-Lys-SIRT1 and SIRT2 deacetylase assay were performed as manufacturer's instruction (Enzo Life Sciences, Farmingdale, N.Y.). For competition assay, 50 μM of suramin was added to reaction.

The test system of a further test is acetyl-p53. The note with it: reported; cited from earlier work.
In test [2] the target is T1, purified human SIRT1 enzyme. The note with it: reported; cited from earlier work.

Data on two compounds can be found in US10478445B2, “Boronic acid derivatives of resveratrol for activating deacetylase enzymes” (Georgetown University, priority 2013, dated 2019).

With `Cc1ccc(C(=O)Nc2ccc(S(=O)(=O)O)c3cc(S(=O)(=O)O)cc(S(=O)(=O)O)c23)cc1NC(=O)c1cccc(NC(=O)Nc2cccc(C(=O)Nc3cc(C(=O)Nc4ccc(S(=O)(=O)O)c5cc(S(=O)(=O)O)cc(S(=O)(=O)O)c45)ccc3C)c2)c1` [suramin], the “effect of pre-treatment on YK-3-237-mediated deacetylation and reduction of mtp53” value with mtp53 is “reversed both deacetylation of mtp53 (K382) and reduction of mtp53 protein”. Also, in test [1], the “effect on YK-3-237-mediated SIRT1 activation (competition assay)” value is given as “antagonized YK-3-237-mediated SIRT1 activation”.

As to `O=C(Nc1ccccc1-c1cn2c(CN3CCNCC3)csc2n1)c1cnc2ccccc2n1` [SRT1720], in the test on acetyl-p53, the acetyl-p53 in cells result was “reduce acetyl-p53 in cells”. Further, the “in vitro SIRT1 activity toward nascent p53 peptide” value in test [2] is “could not activate in vitro SIRT1 activity toward nascent p53 peptide”.
